In patent US20230407243A1, “GENETIC PLATFORM TO INVESTIGATE THE FUNCTIONS OF BACTERIAL DRUG EFFLUX PUMPS” (priority 2022, published 2023):
Where two headings read alike, the source gives them in different places.

How the values were obtained:
Format in all cases: cell-based, Escherichia coli
ΔtolC-Pore = assay: microbe, parasite or virus in culture; details: for MIC: Escherichia coli, 18 h, read-out: Minimum inhibitory concentration, ΔtolC-Pore; for Minimum inhibitory concentration (MIC), Pore ΔtolC: Table 10, with pore, technical duplicate
Summary of the method: (§1)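 E. coli strains carrying a genomically integrated constitutive fhuA ΔC/Δ4L pore were grown 18 h in LB at 37 °C, then diluted 1/2000 in MHB II from OD600 ~1.0. Compounds were tested in duplicate, 2-fold serial titration, for 18 h at 37 °C with shaking. MIC came from OD600 with the pre-incubation background subtracted.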

wild-type (WT) K-12-Pore = assay: microbe, parasite or virus in culture; details: Escherichia coli
Summary of the method: as §1

EKO-35 araC::emrKY Pore = assay: MIC susceptibility profiling, porinated efflux platform; details: for Fold changes of MICs: EKO-35 araC::emrKY Pore compared to EKO-35-Pore
Summary of the method: as §1

[1] = system: EKO-35 araC::acrBD408A Pore; assay: as above; details: for MIC: Escherichia coli, EKO-35 araC::acrBD408A Pore, technical duplicate, read-out: Minimum inhibitory concentration; for Fold changes of MICs: EKO-35 araC::acrBD408A Pore compared to EKO-35-Pore
Summary of the method: as §1

EKO-35 araC::acrD Pore = assay: as above; details: for Fold changes of MICs: EKO-35 araC::acrD Pore compared to EKO-35-Pore
Summary of the method: as §1

EKO-35-Pore = assay: MIC susceptibility profiling, porinated strain; details: for Fold changes of MICs: EKO-35-Pore compared to EKO-35-Pore (reference); for MIC: Escherichia coli, technical duplicate
Summary of the method: as §1

EKO-35 araC::acrD = assay: MIC susceptibility profiling, efflux platform; details: for Fold change of MICs: EKO-35 araC::acrD compared to EKO-35; for MIC: Escherichia coli, Table 13A, non-porinated, technical duplicate, read-out: Minimum Inhibitory Concentration, EKO-35 araC::acrD
Summary of the method: (§2)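 Steps: LB overnight culture at 37 °C; resuspension in PBS to OD600 ~1.0; 1/2000 dilution in MHB II; addition to 2-fold serial compound dilutions (duplicate); 18 h shaking incubation at 37 °C; OD600 read, with pre-read subtracted.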

EKO-35 araC::emrAB = assay: MIC susceptibility profiling, efflux platform; details: for Fold change of MICs: EKO-35 araC::emrAB compared to EKO-35; for MIC: Escherichia coli, Table 13B, non-porinated, technical duplicate, read-out: Minimum Inhibitory Concentration, EKO-35 araC::emrAB
Summary of the method: as §2

EKO-35 araC::acrB = assay: MIC susceptibility profiling, efflux platform; details: for Fold change of MICs: EKO-35 araC::acrB compared to EKO-35; for MIC: Escherichia coli, Table 13A, non-porinated, technical duplicate, read-out: Minimum Inhibitory Concentration, EKO-35 araC::acrB
Summary of the method: as §2

EKO-35 araC::mdtBC = assay: MIC susceptibility profiling, efflux platform; details: for Fold change of MICs: EKO-35 araC::mdtBC compared to EKO-35; for MIC: Escherichia coli, Table 13B, non-porinated, technical duplicate, read-out: Minimum Inhibitory Concentration, EKO-35 araC::mdtBC
Summary of the method: as §2

EKO-35 araC::emrKY = assay: MIC susceptibility profiling, efflux platform; details: for Fold change of MICs: EKO-35 araC::emrKY compared to EKO-35; for MIC: Escherichia coli, Table 13B, non-porinated, technical duplicate, read-out: Minimum Inhibitory Concentration, EKO-35 araC::emrKY
Summary of the method: as §2

EKO-35 araC::macAB = assay: MIC susceptibility profiling, efflux platform; details: for Fold change of MICs: EKO-35 araC::macAB compared to EKO-35
Summary of the method: as §2

EKO-35 araC::mdtEF = assay: MIC susceptibility profiling, efflux platform; details: for Fold change of MICs: EKO-35 araC::mdtEF compared to EKO-35; for MIC: Escherichia coli, Table 13A, non-porinated, technical duplicate, read-out: Minimum Inhibitory Concentration, EKO-35 araC::mdtEF
Summary of the method: as §2

EKO-35 araC::acrEF = assay: MIC susceptibility profiling, efflux platform; details: for Fold change of MICs: EKO-35 araC::acrEF compared to EKO-35; for MIC: Escherichia coli, Table 13A, non-porinated, technical duplicate, read-out: Minimum Inhibitory Concentration, EKO-35 araC::acrEF
Summary of the method: as §2

EKO-35 araC::acrBD408A = assay: MIC susceptibility profiling, efflux platform; details: for Fold change of MICs: EKO-35 araC::acrBD408A compared to EKO-35; for MIC: Escherichia coli, Table 13B, non-porinated, technical duplicate, read-out: Minimum Inhibitory Concentration, EKO-35 araC::acrBD408A
Summary of the method: as §2

[2] = system: EKO-35 araC::mexCD (MexCD from P. aeruginosa); assay: MIC susceptibility profiling, efflux platform; details: for Fold change of MICs: EKO-35 araC::mexCD compared to EKO-35; for MIC: Table 13B, non-porinated, technical duplicate, read-out: Minimum Inhibitory Concentration, EKO-35 araC::mexCD
Summary of the method: as §2

[3] = system: wild-type E. coli K-12 str. BW25113; assay: microbe, parasite or virus in culture; details: Escherichia coli
Summary of the method: as §2

E. coli ΔtolC = assay: microbe, parasite or virus in culture; details: for MIC: Escherichia coli, 18 h, read-out: Minimum Inhibitory Concentration, ΔtolC; for Minimum inhibitory concentration (MIC), ΔtolC: Table 10, without pore, technical duplicate
Summary of the method: as §2

E. coli EKO-35 = assay: microbe, parasite or virus in culture; details: for Fold change of MICs: EKO-35 compared to EKO-35 (reference); for MIC: Escherichia coli
Summary of the method: as §2

[4] = Table 10, with pore, technical duplicate, read-out: Minimum inhibitory concentration (MIC), Pore K-12
[5] = Table 14A, porinated, technical duplicate, read-out: Minimum inhibitory concentration, K-12 (WT)-Pore
[6] = BW25113, Table 10, without pore, technical duplicate, read-out: Minimum inhibitory concentration (MIC), K-12
[7] = BW25113, Table 13A, non-porinated, technical duplicate, read-out: Minimum Inhibitory Concentration, K-12
[8] = EKO35, Table 10, without pore, technical duplicate, read-out: Minimum inhibitory concentration (MIC), EKO-35
[9] = EKO35, Table 13A, non-porinated, technical duplicate, read-out: Minimum Inhibitory Concentration, EKO-35

SMILES	MIC (ΔtolC-Pore)	Minimum inhibitory concentration (MIC), Pore ΔtolC (ΔtolC-Pore)	Fold changes of MICs (EKO-35 araC::emrKY Pore)	MIC [1]	Fold changes of MICs (EKO-35 araC::acrD Pore)	Fold changes of MICs (EKO-35-Pore)	Fold change of MICs (EKO-35 araC::acrD)	Fold change of MICs (EKO-35 araC::emrAB)	Fold change of MICs (EKO-35 araC::acrB)	Fold change of MICs (EKO-35 araC::mdtBC)	Fold change of MICs (EKO-35 araC::emrKY)	Fold change of MICs (EKO-35 araC::macAB)	Fold change of MICs (EKO-35 araC::mdtEF)	Fold change of MICs (EKO-35 araC::acrEF)	Fold change of MICs (EKO-35 araC::acrBD408A)	Fold change of MICs [2]	MIC [2]	MIC (E. coli ΔtolC)	Minimum inhibitory concentration (MIC), ΔtolC (E. coli ΔtolC)	Fold change of MICs (E. coli EKO-35)	also measured
NCCCNCCCCNCCCN [Spermine]	2000 µg/mL	2000 µg/mL	1 fold	500 µg/mL	1 fold	1 fold	1 fold	1 fold	1 fold	1 fold	1 fold	1 fold	1 fold	1 fold	1 fold	1 fold	2000 µg/mL	2000 µg/mL	2000 µg/mL	1 fold	MIC (wild-type (WT) K-12-Pore; read-out: Minimum inhibitory concentration (MIC), Pore K-12): 2000 µg/mL; MIC (wild-type (WT) K-12-Pore; read-out: Minimum inhibitory concentration, K-12 (WT)-Pore): 2000 µg/mL; MIC ([3]; BW25113, read-out: Minimum Inhibitory Concentration, K-12): 2000 µg/mL; MIC ([3]; BW25113, read-out: Minimum inhibitory concentration (MIC), K-12): 2000 µg/mL; MIC (E. coli EKO-35; EKO35, read-out: Minimum Inhibitory Concentration, EKO-35): 2000 µg/mL; MIC (E. coli EKO-35; EKO35, read-out: Minimum inhibitory concentration (MIC), EKO-35): 2000 µg/mL
[H]/N=C(/N)N[C@H]1[C@H](O)[C@@H](O)[C@H](O[C@@H]2O[C@@H](C)[C@](O)(C=O)[C@H]2O[C@@H]2O[C@@H](CO)[C@H](O)[C@@H](O)[C@@H]2NC)[C@@H](N/C(N)=N\[H])[C@@H]1O [Streptomycin]	1.56 µg/mL	1.563 µg/mL	1 fold	1.56 µg/mL	1 fold	1 fold	2 fold	1 fold	2 fold	2 fold	1 fold	1 fold	2 fold	1 fold	1 fold	1 fold	3.12 µg/mL	3.12 µg/mL	3.125 µg/mL	1 fold	MIC (wild-type (WT) K-12-Pore; [4]): 12.5 µg/mL; MIC (wild-type (WT) K-12-Pore; [5]): 12.5 µg/mL; MIC (EKO-35 araC::emrKY Pore; Escherichia coli, EKO-35 araC::emrKY Pore, technical duplicate, read-out: Minimum inhibitory concentration): 3.12 µg/mL; Fold changes of MICs [1]: 1 fold; MIC (EKO-35 araC::acrD Pore; Escherichia coli, Table 14A, porinated, technical duplicate, read-out: Minimum inhibitory concentration, EKO-35 araC::acrD Pore): 3.12 µg/mL; MIC (EKO-35-Pore; Table 10, with pore, read-out: Minimum inhibitory concentration (MIC), Pore EKO-35): 3.12 µg/mL; MIC (EKO-35-Pore; Table 14A, porinated, read-out: Minimum inhibitory concentration, EKO-35-Pore): 3.12 µg/mL; MIC (EKO-35 araC::acrD): 6.25 µg/mL; MIC (EKO-35 araC::emrAB): 3.12 µg/mL; MIC (EKO-35 araC::acrB): 6.25 µg/mL; MIC (EKO-35 araC::mdtBC): 6.25 µg/mL; MIC (EKO-35 araC::emrKY): 3.12 µg/mL; MIC (EKO-35 araC::macAB; Escherichia coli, Table 13B, non-porinated, technical duplicate, read-out: Minimum Inhibitory Concentration, EKO-35 araC::macAB): 3.12 µg/mL; MIC (EKO-35 araC::mdtEF): 6.25 µg/mL; MIC (EKO-35 araC::acrEF): 3.12 µg/mL; MIC (EKO-35 araC::acrBD408A): 3.12 µg/mL; MIC [3, 6]: 6.25 µg/mL; MIC [3, 7]: 6.25 µg/mL; MIC (E. coli EKO-35; [8]): 3.12 µg/mL; MIC (E. coli EKO-35; [9]): 3.12 µg/mL
Nc1ccc(S(=O)(=O)Nc2nccs2)cc1 [Sulfathiazole]	2.5 µg/mL	2.5 µg/mL	1 fold	1.25 µg/mL	1 fold	1 fold	1 fold	1 fold	1 fold	1 fold	1 fold	1 fold	1 fold	1 fold	1 fold	1 fold	10 µg/mL	5 µg/mL	5 µg/mL	1 fold	MIC (wild-type (WT) K-12-Pore; [4]): 5 µg/mL; MIC (wild-type (WT) K-12-Pore; [5]): 5 µg/mL; Fold changes of MICs [1]: 0 fold; MIC (EKO-35 araC::acrD): 10 µg/mL; MIC (EKO-35 araC::emrAB): 10 µg/mL; MIC (EKO-35 araC::acrB): 10 µg/mL; MIC (EKO-35 araC::mdtBC): 10 µg/mL; MIC (EKO-35 araC::emrKY): 10 µg/mL; MIC (EKO-35 araC::mdtEF): 10 µg/mL; MIC (EKO-35 araC::acrEF): 10 µg/mL; MIC (EKO-35 araC::acrBD408A): 10 µg/mL; MIC [3, 6]: 5 µg/mL; MIC [3, 7]: 5 µg/mL; MIC (E. coli EKO-35; [8]): 10 µg/mL; MIC (E. coli EKO-35; [9]): 10 µg/mL
